Reference: patent US10189809B2, “SGC stimulators” (Ironwood Pharmaceuticals, Inc., priority 2010, dated 2019)

Tests used:
[1] = target: T1, Human soluble guanylate cyclase enzyme (hsGC) (Homo sapiens (Human), UniProt Q02108+Q02153); assay: Purified human sGC enzyme synergy assay in the presence of 1 μM sodium nitroprusside (SNP); format: biochemical; settings: with 1 μM SNP; for sGC Enzyme (fold increase at 10 μM with SNP): 10 μM compound; for sGC Enzyme (fold increase at 30 μM with SNP): 30 μM compound
Method: Human soluble guanylate cyclase enzyme (hsGC) obtained from Enzo Inc. (P/N: ALX-201-177) was used to evaluate the activity of test compounds. The assay reactions contained 0.1 M Tris (pH 8.0), 0.5 mg/mL BSA (pH 8.0), 2 mM DTT, 2 mM MgCl2, 300 μM GTP, 1 mM 3-isobutyl-1-methylxanthine (IBMX) and 5 ng human soluble guanylate cyclase enzyme. Test compounds in DMSO were then added (2 μL, 10 or 30 μM final concentration) and incubated (200 μL, 96-well plate format) at 37° C. for 30 minutes. The controls were carried out using 2 μL DMSO. After the 30 minute incubation, the reaction was stopped with the addition of 200 μL of cold methanol. The plate was then centrifuged at 3,200 rpm for 10 minutes at room temperature. Supernatants (200 μL) were collected and transferred to a new 96 well plate for analysis.
An 8 point cGMP (Sigma-Aldrich P/N: G6129) standard curve was prepared in assay buffer ranging from 0.156-20 μM. Samples for the cGMP standard curve were then diluted with an equal volume of methanol resulting in final cGMP concentrations of 0.078-10 μM.
The cGMP standard curve was generated using GraphPad Prism Software.
Calculations: Specific Activity was determined by the amount of cGMP formed (nmoles) per mg of sGC per min. Enzyme “fold-change” was calculated by dividing Specific Activity for test compounds by Specific Activity of DMSO controls.
Enzyme assays were performed as described above, but was done in the presence of 1 μM sodium nitroprusside (SNP).

[2] = target: T1, Human soluble guanylate cyclase enzyme (hsGC); assay: Purified human sGC enzyme activity assay; format: biochemical; settings: for sGC Enzyme (specific activity at 10 μM) / sGC Enzyme (fold increase at 10 μM without SNP): 10 μM compound; for sGC Enzyme (specific activity at 30 μM) / sGC Enzyme (fold increase at 30 μM without SNP): 30 μM compound
In short: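 Purified human sGC (5 ng) incubated 30 min at 37° C with compound at 10 or 30 μM final in pH 8.0 Tris with 300 μM GTP, 2 mM MgCl2, 2 mM DTT and 1 mM IBMX, then stopped with cold methanol. cGMP quantified against a standard curve. Specific activity (nmol cGMP/mg sGC/min) expressed as fold-change over DMSO control.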

[3] = target: soluble guanylate cyclase (sGC) (Homo sapiens (Human), UniProt Q02108+Q02153); assay: sGC-HEK-cGMP assay run with SNP incubation (HEK WC assay); format: cell-based; settings: for Emax at 10 µM: read-out: HEK WC Assay (% Emax at 10 uM/with 10 uM SNP); for Emax at 30 µM: read-out: HEK WC Assay (% Emax at 30 uM/with 10 uM SNP)
In short: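 HEK293 cells with endogenous sGC were pretreated with 0.5 mM IBMX for 15 min at 37 °C, then exposed to test compound plus sodium nitroprusside for 10 min at 37 °C.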

T1 sequence (Q02153 whole entry): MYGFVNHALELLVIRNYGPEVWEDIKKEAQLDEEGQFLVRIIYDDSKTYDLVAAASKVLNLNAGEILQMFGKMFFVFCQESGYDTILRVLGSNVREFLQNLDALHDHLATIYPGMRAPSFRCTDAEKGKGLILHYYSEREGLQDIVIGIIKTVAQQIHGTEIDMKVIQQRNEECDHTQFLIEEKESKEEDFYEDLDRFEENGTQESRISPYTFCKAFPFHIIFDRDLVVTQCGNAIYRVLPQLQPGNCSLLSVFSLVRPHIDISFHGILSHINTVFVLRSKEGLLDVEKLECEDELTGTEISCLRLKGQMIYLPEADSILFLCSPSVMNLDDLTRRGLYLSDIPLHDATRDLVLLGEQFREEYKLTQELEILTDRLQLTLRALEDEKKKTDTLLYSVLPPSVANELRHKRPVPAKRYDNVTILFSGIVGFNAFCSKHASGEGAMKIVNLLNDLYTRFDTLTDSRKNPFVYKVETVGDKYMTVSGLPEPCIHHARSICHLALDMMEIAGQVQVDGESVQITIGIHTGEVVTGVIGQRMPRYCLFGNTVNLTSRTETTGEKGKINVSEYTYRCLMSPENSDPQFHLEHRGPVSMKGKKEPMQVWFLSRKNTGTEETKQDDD
T1 sequence (Q02108 whole entry): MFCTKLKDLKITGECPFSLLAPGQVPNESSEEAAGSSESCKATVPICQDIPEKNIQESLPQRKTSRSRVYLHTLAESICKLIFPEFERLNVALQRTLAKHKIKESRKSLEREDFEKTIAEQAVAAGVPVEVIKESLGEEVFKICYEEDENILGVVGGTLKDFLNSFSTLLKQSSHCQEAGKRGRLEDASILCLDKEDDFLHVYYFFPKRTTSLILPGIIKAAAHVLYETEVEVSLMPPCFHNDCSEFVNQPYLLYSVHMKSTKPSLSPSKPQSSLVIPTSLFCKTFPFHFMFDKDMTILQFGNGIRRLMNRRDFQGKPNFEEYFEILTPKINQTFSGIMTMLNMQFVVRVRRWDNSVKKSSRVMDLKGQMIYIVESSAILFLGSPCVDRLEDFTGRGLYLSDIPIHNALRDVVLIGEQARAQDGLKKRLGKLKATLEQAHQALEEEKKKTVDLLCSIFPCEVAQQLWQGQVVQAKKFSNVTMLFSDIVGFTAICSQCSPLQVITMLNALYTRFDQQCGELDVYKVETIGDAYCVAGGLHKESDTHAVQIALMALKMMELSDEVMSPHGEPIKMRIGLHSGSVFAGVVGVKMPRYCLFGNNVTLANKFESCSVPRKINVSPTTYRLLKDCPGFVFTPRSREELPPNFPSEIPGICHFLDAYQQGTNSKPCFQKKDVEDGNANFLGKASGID
Sequence of soluble guanylate cyclase (sGC) (Q02153 whole entry): as the sequence (Q02153 whole entry) above
Sequence of soluble guanylate cyclase (sGC) (Q02108 whole entry): as the sequence (Q02108 whole entry) above

| SMILES | sGC Enzyme (fold increase at 10 μM with SNP) [1] | sGC Enzyme (fold increase at 30 μM with SNP) [1] | sGC Enzyme (specific activity at 10 μM) [2] | sGC Enzyme (fold increase at 10 μM without SNP) [2] | sGC Enzyme (specific activity at 30 μM) [2] | sGC Enzyme (fold increase at 30 μM without SNP) [2] | Emax at 10 µM [3] [%] | Emax at 30 µM [3] [%] |
| --- | --- | --- | --- | --- | --- | --- | --- | --- |
| Fc1ccccc1Cn1nc(-c2ccccn2)cc1-c1nnn[nH]1 [Compound I-43] | A (A = no increase to <2 fold increase) | A (A = no increase to <2 fold increase) | C (C = 100 to <200) | A (A = no increase to <2 fold increase) | C (C = 100 to <200) | A (A = no increase to <2 fold increase) | 0 to 10 | 0 to 10 |
| Cc1nnc(-c2cc(-c3ccccn3)nn2Cc2ccccc2F)o1 [Compound I-46] | A (A = no increase to <2 fold increase) | A (A = no increase to <2 fold increase) | C (C = 100 to <200) | A (A = no increase to <2 fold increase) | D (D = 200 to <500) | A (A = no increase to <2 fold increase) | 0 to 10 | 0 to 10 |
| CC(C)c1cc(-c2ccccn2)nn1Cc1ccccc1F [Compound I-47] | B (B = 2 to <5 fold increase) | B (B = 2 to <5 fold increase) | D (D = 200 to <500) | A (A = no increase to <2 fold increase) | D (D = 200 to <500) | B (B = 2 to <5 fold increase) | 0 to 10 | 0 to 10 |
| Fc1ccccc1Cn1nc(-c2ccccn2)cc1C1CCCCC1 [Compound I-48] | B (B = 2 to <5 fold increase) | C (C = 5 to <10 fold increase) | D (D = 200 to <500) | B (B = 2 to <5 fold increase) | E (E = 500 to <1000) | B (B = 2 to <5 fold increase) | 0 to 10 | 0 to 10 |
| Fc1ccccc1Cn1nc(-c2ccccn2)cc1-c1ccc(Br)cn1 [Compound I-51, 5-bromo-2-(1-(2-fluorobenzyl)-3-(pyridin-2-yl)-1H-pyrazol-5-yl)pyridine] | A (A = no increase to <2 fold increase) | A (A = no increase to <2 fold increase) | – | A (A = no increase to <2 fold increase) | – | A (A = no increase to <2 fold increase) | 0 to 10 | 0 to 10 |
| Fc1ccccc1Cn1nc(-c2ccc(Br)cn2)cc1-c1ccccn1 [Compound I-52, 5-bromo-2-(1-(2-fluorobenzyl)-5-(pyridin-2-yl)-1H-pyrazol-3-yl)pyridine] | A (A = no increase to <2 fold increase) | A (A = no increase to <2 fold increase) | – | A (A = no increase to <2 fold increase) | – | A (A = no increase to <2 fold increase) | 0 to 10 | 0 to 10 |
| Fc1ccccc1Cn1nc(-c2ccccn2)c(I)c1-c1ccccn1 [Compound I-53] | A (A = no increase to <2 fold increase) | A (A = no increase to <2 fold increase) | – | A (A = no increase to <2 fold increase) | – | A (A = no increase to <2 fold increase) | 0 to 10 | 0 to 10 |
| N#Cc1c(-c2ccccn2)nn(Cc2ccccc2F)c1-c1ccccn1 [Compound I-54, 1-(2-fluorobenzyl)-3,5-di(pyridin-2-yl)-1H-pyrazole-4-carbonitrile] | A (A = no increase to <2 fold increase) | A (A = no increase to <2 fold increase) | – | A (A = no increase to <2 fold increase) | – | A (A = no increase to <2 fold increase) | 0 to 10 | 0 to 10 |
| Cc1cc(-c2ccccn2)nn1Cc1ccccc1F [Compound I-55] | B (B = 2 to <5 fold increase) | B (B = 2 to <5 fold increase) | – | A (A = no increase to <2 fold increase) | – | B (B = 2 to <5 fold increase) | 10 to 20 | 20 to 40 |
| Cc1ccc(-c2cc(-c3ccccn3)nn2Cc2ccccc2F)nc1 [Compound I-56] | A (A = no increase to <2 fold increase) | A (A = no increase to <2 fold increase) | B (B = 50 to <100) | A (A = no increase to <2 fold increase) | B (B = 50 to <100) | A (A = no increase to <2 fold increase) | 0 to 10 | 0 to 10 |
| Cc1ccc(-c2cc(-c3ccccn3)n(Cc3ccccc3F)n2)nc1 [Compound I-57] | A (A = no increase to <2 fold increase) | B (B = 2 to <5 fold increase) | B (B = 50 to <100) | A (A = no increase to <2 fold increase) | B (B = 50 to <100) | A (A = no increase to <2 fold increase) | 0 to 10 | 0 to 10 |
| Cc1ccc(-c2c(Br)c(-c3ncccn3)nn2Cc2ccccc2F)cc1 [Compound I-58] | B (B = 2 to <5 fold increase) | B (B = 2 to <5 fold increase) | B (B = 50 to <100) | A (A = no increase to <2 fold increase) | B (B = 50 to <100) | B (B = 2 to <5 fold increase) | 0 to 10 | 0 to 10 |
| Fc1ccccc1Cn1nc(-c2ncccn2)cc1-c1ccccc1F [Compound I-59] | B (B = 2 to <5 fold increase) | C (C = 5 to <10 fold increase) | B (B = 50 to <100) | B (B = 2 to <5 fold increase) | C (C = 100 to <200) | B (B = 2 to <5 fold increase) | 0 to 10 | 0 to 10 |
